Experimental data from ChEMBL document CHEMBL4043292, “Discovery and Optimization of Phosphopantetheine Adenylyltransferase Inhibitors with Gram-Negative Antibacterial Activity” (J Med Chem, 2018).
Converted amounts (≈) assume the structure as drawn.

Legend:
physchem [1] = conditions: buffer, pH 7.4
Description: Lipophilicity, log D of the compound at pH 7.4

Escherichia coli [2] = assay: microbe, parasite or virus in culture; conditions: JW5503-1, 20 h
Description: Antibacterial activity against tolC deficient Escherichia coli JW5503-1 after 20 hrs by broth microdilution method

Escherichia coli [3] = assay: microbe, parasite or virus in culture; conditions: BW25113, 20 h
Description: Antibacterial activity against Escherichia coli BW25113 after 20 hrs by broth microdilution method

[4] = Inhibition of PPAT in tolC deficient Escherichia coli JW5503-1 assessed as reduction in level of CoA-SH metabolite by mass spectrometric method
[5] = Inhibition of PPAT in Escherichia coli BW25113 assessed as reduction in level of CoA-SH metabolite by mass spectrometric method
physchem [6] = conditions: PBS
Description: Solubility of the compound in PBS

[7] = target: T1, Bifunctional coenzyme A synthase (Homo sapiens) (UniProt Q13057)
T1 sequence (whole entry): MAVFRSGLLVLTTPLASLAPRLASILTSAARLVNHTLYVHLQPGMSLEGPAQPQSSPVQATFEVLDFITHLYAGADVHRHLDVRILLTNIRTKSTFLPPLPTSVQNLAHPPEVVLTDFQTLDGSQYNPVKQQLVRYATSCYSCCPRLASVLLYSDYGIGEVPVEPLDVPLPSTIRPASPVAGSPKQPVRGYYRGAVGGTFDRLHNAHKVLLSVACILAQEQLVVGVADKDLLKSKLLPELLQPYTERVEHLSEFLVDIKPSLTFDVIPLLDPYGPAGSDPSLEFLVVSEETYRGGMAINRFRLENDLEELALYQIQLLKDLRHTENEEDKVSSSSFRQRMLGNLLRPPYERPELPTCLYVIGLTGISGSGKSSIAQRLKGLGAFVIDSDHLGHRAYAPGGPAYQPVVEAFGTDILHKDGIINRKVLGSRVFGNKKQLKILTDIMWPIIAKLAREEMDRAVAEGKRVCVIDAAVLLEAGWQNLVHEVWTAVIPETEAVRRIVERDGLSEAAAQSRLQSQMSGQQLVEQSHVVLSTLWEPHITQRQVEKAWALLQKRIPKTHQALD
Description: Inhibition of human coaSY expressed in tolC deficient Escherichia coli JWK0002 assessed as bacterial growth inhibition after 20 hrs by broth microdilution method

in vitro = conditions: human, not told
Description: Efflux ratio in human microsomes

Escherichia coli [8] = assay: microbe, parasite or virus in culture; conditions: JW0451-2, 20 h
Description: Antibacterial activity against acrB deficient Escherichia coli JW0451-2 after 20 hrs by broth microdilution method

Escherichia coli [9] = assay: microbe, parasite or virus in culture; conditions: RFM795, 20 h
Description: Antibacterial activity Escherichia coli RFM795 harboring frame deletion of 23 amino acids in lptD gene after 20 hrs by broth microdilution method

Pseudomonas aeruginosa [10] = assay: microbe, parasite or virus in culture; conditions: PAO1, 20 h
Description: Antibacterial activity against Pseudomonas aeruginosa PAO1 after 20 hrs by broth microdilution method

Pseudomonas aeruginosa [11] = assay: microbe, parasite or virus in culture; conditions: ATCC 35151, 20 h
Description: Antibacterial activity against Pseudomonas aeruginosa ATCC 35151 after 20 hrs by broth microdilution method

Pseudomonas aeruginosa [12] = assay: microbe, parasite or virus in culture; conditions: K1119, 20 h
Description: Antibacterial activity against mexAB deficient Pseudomonas aeruginosa K1119 after 20 hrs by broth microdilution method

Escherichia coli [13] = assay: Ratio of IC50 for PPAT in Escherichia coli BW25113 assessed as reduction in level of CoA-SH metabolite to IC50 for PPAT in tolC deficient Escherichia coli JW5503-1 assessed as reduction in level of CoA-SH metabolite

SMILES | logD (physchem [1]) | MIC (Escherichia coli [2]) | MIC (Escherichia coli [3]) | other results
COC(=O)N1CC[C@@H](Cc2cccc([C@@H](CC#N)Nc3nc4nc(C)ccc4[nH]3)c2)C1 | 3.1 | 1 µg/mL (≈ 2.39 µM) | > 128 µg/mL | –
COC(=O)N1CCC(CCCO)(Cc2cccc([C@@H](CC#N)Nc3nc4nc(C)ccc4[nH]3)c2)CC1 | – | 0.25 µg/mL (≈ 0.51 µM) | > 128 µg/mL | –
Cc1cc(NC[C@@H](N)c2ccc(F)cc2)n2nc(N[C@H](CC#N)c3cccc(Cl)c3)nc2n1 | – | 0.5 µg/mL (≈ 1.08 µM) | 64 µg/mL (≈ 138 µM) | –
Cc1cc(NCCc2c(C)n[nH]c2C)n2nc(N[C@H](CC#N)c3cccc(Cl)c3)nc2n1 | 3.8 | 0.5 µg/mL (≈ 1.11 µM) | > 128 µg/mL | IC50 [4]: 12 nM; IC50 [5]: 74000 nM; solubility (physchem [6]): 23.8 µg/mL (≈ 52.9 µM)
Cc1cc(N2CC(N(C)C)C2)n2nc(N[C@H](C)c3cccc(Cl)c3)nc2n1 | – | > 128 µg/mL | > 128 µg/mL | –
Cc1cc(Nc2ccc3nc(C)sc3c2)n2nc(N[C@H](C)c3cccc(Cl)c3)nc2n1 | 4.4 | 1 µg/mL (≈ 2.22 µM) | > 128 µg/mL | –
Cc1cc(=O)n2nc(N[C@H](CC#N)c3cccc(Cl)c3)nc2[nH]1 | – | 16 µg/mL (≈ 48.7 µM) | > 128 µg/mL | IC50 [4]: 590 nM; IC50 [5]: > 200000 nM
COC(=O)N1CCC(CCC#N)(Cc2cccc([C@@H](CC#N)Nc3nc4nc(C)ccc4[nH]3)c2)CC1 | – | 0.5 µg/mL (≈ 1.03 µM) | > 128 µg/mL | –
COc1ccc(Oc2cccc([C@@H](C)Nc3nc4[nH]c(C)cc(=O)n4n3)c2)cc1 | – | 64 µg/mL (≈ 164 µM) | – | –
Cc1cc(NC[C@@H](N)c2cccc(F)c2)n2nc(N[C@H](CC#N)c3cccc(Cl)c3)nc2n1 | 3.7 | 0.25 µg/mL (≈ 0.538 µM) | 64 µg/mL (≈ 138 µM) | –
Cc1cc(N2CCN(C)CC2)n2nc(N[C@H](C)c3cccc(Cl)c3)nc2n1 | 3.3 | 32 µg/mL (≈ 82.9 µM) | > 128 µg/mL | –
COC(=O)N1CCC(Sc2cccc([C@@H](CC#N)Nc3nc4nc(C)ccc4[nH]3)c2)CC1 | 3.7 | 0.06 µg/mL (≈ 0.133 µM) | 64 µg/mL (≈ 142 µM) | –
COC(=O)N1CCC(CNCCO)(Cc2cccc([C@@H](CC#N)Nc3nc4nc(C)ccc4[nH]3)c2)CC1 | – | 32 µg/mL (≈ 63.3 µM) | > 128 µg/mL | –
Cc1cc(NC[C@H](N)c2ccccc2)n2nc(N[C@H](CC#N)c3cccc(Cl)c3)nc2n1 | 3.2 | 8 µg/mL (≈ 17.9 µM) | > 128 µg/mL | –
COC(=O)N1CCC(CO)(Cc2cccc([C@@H](CC#N)Nc3nc4nc(C)ccc4[nH]3)c2)CC1 | – | 1 µg/mL (≈ 2.16 µM) | > 128 µg/mL | –
CC(=O)N1CCc2cc(Nc3cc(C)nc4nc(N[C@H](C)c5cccc(Cl)c5)nn34)ccc21 | 4.6 | 0.125 µg/mL (≈ 0.271 µM) | > 128 µg/mL | –
Cc1cc(NC[C@@H](N)c2cccs2)n2nc(N[C@H](CC#N)c3cccc(Cl)c3)nc2n1 | 3.3 | 0.25 µg/mL (≈ 0.552 µM) | 64 µg/mL (≈ 141 µM) | –
COC(=O)N1CCC(Oc2cccc([C@@H](CC#N)Nc3nc4nc(C)cc(N5CCN(C)CC5)c4[nH]3)c2)CC1 | – | 4 µg/mL (≈ 7.51 µM) | > 128 µg/mL | MIC [7]: > 128 µg/mL; efflux ratio (in vitro): 0.56; MIC (Escherichia coli [8]): 64 µg/mL (≈ 120 µM); MIC (Escherichia coli [9]): 64 µg/mL (≈ 120 µM); MIC (Pseudomonas aeruginosa [10]): > 128 µg/mL; MIC (Pseudomonas aeruginosa [11]): > 128 µg/mL; MIC (Pseudomonas aeruginosa [12]): > 128 µg/mL
Cc1cc(NC[C@@H](N)c2ccccc2F)n2nc(N[C@H](CC#N)c3cccc(Cl)c3)nc2n1 | 3.2 | 0.125 µg/mL (≈ 0.269 µM) | 64 µg/mL (≈ 138 µM) | –
COC(=O)N1CCN(S(=O)(=O)c2cccc([C@@H](CC#N)Nc3nc4nc(C)ccc4[nH]3)c2)CC1 | 2 | 32 µg/mL (≈ 66.2 µM) | > 128 µg/mL | –
Cc1cc(N[C@H]2C[C@@H]2c2ccccc2)n2nc(N[C@H](C)c3cccc(Cl)c3)nc2n1 | 4.9 | 2 µg/mL (≈ 4.77 µM) | > 128 µg/mL | –
CO/N=C/C1(Cc2cccc([C@@H](CC#N)Nc3nc4nc(C)ccc4[nH]3)c2)CCN(C(=O)OC)CC1 | 3.5 | 0.25 µg/mL (≈ 0.511 µM) | > 128 µg/mL | –
Cc1cc(NC[C@@H](N)c2nccn2C)n2nc(N[C@H](CC#N)c3cccc(Cl)c3)nc2n1 | – | 4 µg/mL (≈ 8.87 µM) | > 128 µg/mL | –
Cc1cc(NC[C@@H](N)c2ccccn2)n2nc(N[C@H](CC#N)c3cccc(Cl)c3)nc2n1 | 1.9 | 2 µg/mL (≈ 4.46 µM) | > 128 µg/mL | –
Cc1cc(=O)n2nc(N[C@H](C)c3cccc(Cl)c3)nc2[nH]1 | – | > 128 µg/mL | – | –

SMILES | logD (physchem [1]) | MIC (Escherichia coli [2]) | MIC (Escherichia coli [3]) | other results
Cc1cc(NC[C@@H](O)c2ccccc2)n2nc(N[C@H](CC#N)c3cccc(Cl)c3)nc2n1 | 3.6 | 0.25 µg/mL (≈ 0.558 µM) | > 128 µg/mL | –
COC(=O)N1CC[C@H](Oc2cccc([C@@H](CC#N)Nc3nc4nc(C)ccc4[nH]3)c2)C1 | 2.7 | 4 µg/mL (≈ 9.51 µM) | > 128 µg/mL | –
COC(=O)N1CCC(CCC(=O)O)(Cc2cccc([C@@H](CC#N)Nc3nc4nc(C)ccc4[nH]3)c2)CC1 | – | 0.5 µg/mL (≈ 0.991 µM) | > 128 µg/mL | –
CC(=O)N1CCc2cc(Nc3cc(C)nc4nc(N[C@H](CC#N)c5cccc(Cl)c5)nn34)ccc21 | 3.9 | 0.06 µg/mL (≈ 0.123 µM) | > 128 µg/mL | IC50 [4]: < 6 nM; IC50 [5]: 2400 nM; solubility (physchem [6]): < 0.6 µg/mL
Cc1cc(NC[C@@H](N)c2ccccc2)n2nc(N[C@H](CC#N)c3cccc(Cl)c3)nc2n1 | 3.4 | 0.25 µg/mL (≈ 0.559 µM) | 32 µg/mL (≈ 71.6 µM) | –
Cc1cc(NC[C@@H](N)C2CC2)n2nc(N[C@H](CC#N)c3cccc(Cl)c3)nc2n1 | 1.3 | 8 µg/mL (≈ 19.5 µM) | > 128 µg/mL | –
COC(=O)N1CCC(Oc2cccc([C@@H](CC#N)Nc3nc4[nH]c(C)cc(=O)n4n3)c2)CC1 | 0.64 | 8 µg/mL (≈ 17.7 µM) | > 128 µg/mL | IC50 [4]: 450 nM; IC50 [5]: > 200000 nM
Cc1cc(N2CCN(C)CC2)n2nc(N[C@H](CC#N)c3cccc(Cl)c3)nc2n1 | 2.4 | 4 µg/mL (≈ 9.73 µM) | > 128 µg/mL | IC50 [4]: 97 nM; IC50 [5]: 41000 nM; solubility (physchem [6]): > 729 µg/mL
COC(=O)N1CCC(Cc2cccc([C@@H](CC#N)Nc3nc4nc(C)ccc4[nH]3)c2)(C(=O)O)CC1 | 0.02 | 16 µg/mL (≈ 33.6 µM) | > 128 µg/mL | –
Cc1cc(NC[C@@H](N)c2c(C)noc2C)n2nc(N[C@H](CC#N)c3cccc(Cl)c3)nc2n1 | – | 1 µg/mL (≈ 2.15 µM) | > 128 µg/mL | –
Cc1cc(N2CCN(C)CC2)c2[nH]c(N[C@H](CC#N)c3cccc(Cl)c3)nc2n1 | – | 2 µg/mL (≈ 4.88 µM) | 64 µg/mL (≈ 156 µM) | MIC [7]: 128 µg/mL (≈ 312 µM); MIC (Escherichia coli [8]): 8 µg/mL (≈ 19.5 µM); MIC (Escherichia coli [9]): 8 µg/mL (≈ 19.5 µM); MIC (Pseudomonas aeruginosa [10]): > 128 µg/mL; MIC (Pseudomonas aeruginosa [11]): 128 µg/mL (≈ 312 µM); MIC (Pseudomonas aeruginosa [12]): > 128 µg/mL
Cc1cc(Nc2ccc(C)c(Cl)c2)n2nc(Cc3ccccc3)nc2n1 | > 5 | – | – | –
Cc1cc(NCCc2c(C)n[nH]c2C)n2nc(N[C@H](C)c3cccc(Cl)c3)nc2n1 | 2.9 | 2 µg/mL (≈ 4.71 µM) | > 128 µg/mL | –
Cc1cc(NC[C@@H](N)c2ccncc2)n2nc(N[C@H](CC#N)c3cccc(Cl)c3)nc2n1 | 2.2 | 4 µg/mL (≈ 8.93 µM) | > 128 µg/mL | –
Cc1cc(NC[C@@H](N)c2ccsc2)n2nc(N[C@H](CC#N)c3cccc(Cl)c3)nc2n1 | 3 | 1 µg/mL (≈ 2.21 µM) | 64 µg/mL (≈ 141 µM) | –
Cc1ccc2[nH]c(N[C@H](CC#N)c3cccc(Cl)c3)nc2n1 | – | 4 µg/mL (≈ 12.8 µM) | > 128 µg/mL | IC50 [4]: 370 nM; IC50 [5]: 4760 nM; Ratio IC50 (Escherichia coli [13]): 13
COC(=O)N1CCN(Cc2cccc([C@@H](CC#N)Nc3nc4nc(C)ccc4[nH]3)c2)C(=O)C1 | 1.4 | – | – | –
COC(=O)N1CC[C@H](Cc2cccc([C@@H](CC#N)Nc3nc4nc(C)ccc4[nH]3)c2)C1 | – | 0.125 µg/mL (≈ 0.299 µM) | 64 µg/mL (≈ 153 µM) | –
COC(=O)N1CCC(S(=O)(=O)c2cccc([C@@H](CC#N)Nc3nc4nc(C)ccc4[nH]3)c2)CC1 | 1.9 | 2 µg/mL (≈ 4.14 µM) | > 128 µg/mL | –
COC(=O)c1ccc(Oc2cccc([C@@H](CC#N)Nc3nc4[nH]c(C)cc(=O)n4n3)c2)cc1 | 2 | 2 µg/mL (≈ 4.5 µM) | – | –
Cc1cc(NC[C@@H](N)c2cccnc2)n2nc(N[C@H](CC#N)c3cccc(Cl)c3)nc2n1 | 2.3 | 4 µg/mL (≈ 8.93 µM) | > 128 µg/mL | –
Cc1cc(N2CC(N(C)C)C2)n2nc(N[C@H](CC#N)c3cccc(Cl)c3)nc2n1 | 2.8 | 4 µg/mL (≈ 9.73 µM) | > 128 µg/mL | –
COC(=O)N1CCC(O)(Cc2cccc([C@@H](CC#N)Nc3nc4nc(C)ccc4[nH]3)c2)CC1 | 2.1 | 2 µg/mL (≈ 4.46 µM) | > 128 µg/mL | –
Cc1cc(NCCc2ccccc2)n2nc(N[C@H](C)c3cccc(Cl)c3)nc2n1 | > 4.8 | 4 µg/mL (≈ 9.83 µM) | > 128 µg/mL | –
COC(=O)N1CC[C@@H](Oc2cccc([C@@H](CC#N)Nc3nc4nc(C)ccc4[nH]3)c2)C1 | 2.8 | > 128 µg/mL | > 128 µg/mL | –
